Data on ten compounds can be found in ChEMBL document CHEMBL2062392, “Structure-Activity Relationship for Thiirane-Based Gelatinase Inhibitors” (ACS Med Chem Lett, 2012).

Calls of active or inactive are those of the source. No cut-off for these calls is given here.

One data set has as its system Liver. Kind of data set: Half life in rat liver S9 fraction at 10 uM by UPLC analysis. The format is ADME, subcellular. The following applies: s9, 10 µM.
Data set [1] concerns the target Matrix metalloproteinase-14 (Homo sapiens, UniProt P50281).
Description: Competitive inhibition of human MMP14 using fluorogenic substrate by Dixon plot analysis
In data set [2] the target is T1, Stromelysin-1 (Homo sapiens, UniProt P08254).
Target sequence in this assay (P08254 whole entry): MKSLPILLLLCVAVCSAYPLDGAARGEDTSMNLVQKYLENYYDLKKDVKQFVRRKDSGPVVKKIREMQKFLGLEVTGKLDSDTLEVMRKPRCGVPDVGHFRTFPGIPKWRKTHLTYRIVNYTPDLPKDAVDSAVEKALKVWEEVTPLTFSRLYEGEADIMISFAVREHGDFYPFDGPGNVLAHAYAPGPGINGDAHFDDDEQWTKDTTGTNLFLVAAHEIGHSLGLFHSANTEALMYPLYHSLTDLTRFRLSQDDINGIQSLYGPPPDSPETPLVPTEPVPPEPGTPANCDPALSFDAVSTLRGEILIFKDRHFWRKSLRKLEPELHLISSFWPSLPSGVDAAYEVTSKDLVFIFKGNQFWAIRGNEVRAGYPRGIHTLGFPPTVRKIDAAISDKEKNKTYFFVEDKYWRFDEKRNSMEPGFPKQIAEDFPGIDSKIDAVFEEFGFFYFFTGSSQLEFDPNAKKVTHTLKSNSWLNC
Description: Competitive inhibition of human MMP3 using fluorogenic substrate by Dixon plot analysis
The target in data set [3] is T2, Interstitial collagenase (Homo sapiens) (UniProt P03956).
T2 sequence (whole entry): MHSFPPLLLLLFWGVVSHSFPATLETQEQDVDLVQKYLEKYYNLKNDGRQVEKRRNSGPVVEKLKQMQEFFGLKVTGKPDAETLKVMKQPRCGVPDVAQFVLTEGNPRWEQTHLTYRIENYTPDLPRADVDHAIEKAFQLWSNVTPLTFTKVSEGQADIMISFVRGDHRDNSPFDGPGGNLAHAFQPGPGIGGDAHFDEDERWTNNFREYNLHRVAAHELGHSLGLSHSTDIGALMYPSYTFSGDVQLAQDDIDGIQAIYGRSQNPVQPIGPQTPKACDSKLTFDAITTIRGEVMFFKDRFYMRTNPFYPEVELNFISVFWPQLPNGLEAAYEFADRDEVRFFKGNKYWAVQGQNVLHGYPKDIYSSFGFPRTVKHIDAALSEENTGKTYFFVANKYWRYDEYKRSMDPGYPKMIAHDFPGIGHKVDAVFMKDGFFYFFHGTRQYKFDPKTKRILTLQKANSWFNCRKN
Kind of data set: Competitive inhibition of human MMP1 using fluorogenic substrate at 20 uM by Dixon plot analysis.

Data set [4] deals with T1, Stromelysin-1. Kind of data set: Competitive inhibition of human MMP3 using fluorogenic substrate at 20 uM by Dixon plot analysis.
Target sequence in this assay (P08254 100-477 limits assumed): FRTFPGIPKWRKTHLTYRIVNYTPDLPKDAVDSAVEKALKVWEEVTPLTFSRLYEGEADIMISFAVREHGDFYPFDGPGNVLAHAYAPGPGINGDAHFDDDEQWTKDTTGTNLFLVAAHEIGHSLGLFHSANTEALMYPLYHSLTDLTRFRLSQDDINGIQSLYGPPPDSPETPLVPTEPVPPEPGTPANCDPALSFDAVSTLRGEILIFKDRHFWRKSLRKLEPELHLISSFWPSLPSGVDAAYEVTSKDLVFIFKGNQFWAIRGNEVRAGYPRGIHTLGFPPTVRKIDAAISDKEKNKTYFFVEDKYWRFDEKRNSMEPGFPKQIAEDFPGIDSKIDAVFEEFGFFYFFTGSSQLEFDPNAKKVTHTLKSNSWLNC
The target in data set [5] is T3, Matrilysin (Homo sapiens) (UniProt P09237).
T3 sequence (whole entry): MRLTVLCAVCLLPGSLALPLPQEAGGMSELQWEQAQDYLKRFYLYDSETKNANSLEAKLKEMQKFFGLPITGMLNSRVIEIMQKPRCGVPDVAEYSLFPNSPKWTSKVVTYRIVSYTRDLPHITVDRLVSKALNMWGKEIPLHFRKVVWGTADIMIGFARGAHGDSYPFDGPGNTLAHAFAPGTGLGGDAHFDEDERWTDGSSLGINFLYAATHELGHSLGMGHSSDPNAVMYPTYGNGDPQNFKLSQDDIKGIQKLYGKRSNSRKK
Put plainly: Competitive inhibition of human MMP7 using fluorogenic substrate at 20 uM by Dixon plot analysis.

For data set [6], the target named is 72 kDa type IV collagenase (Homo sapiens, UniProt P08253).
Description: Competitive inhibition of human MMP2 using fluorogenic substrate by Dixon plot analysis
Data set [7] deals with Matrix metalloproteinase-9 (Homo sapiens, UniProt P14780).
Description: Competitive inhibition of human MMP9 using fluorogenic substrate by Dixon plot analysis
The target in data set [8] is T2, Interstitial collagenase (Homo sapiens). Kind of data set: Competitive inhibition of human MMP1 using fluorogenic substrate at 100 uM by Dixon plot analysis.
In data set [9] the target is T3, Matrilysin (Homo sapiens). Put plainly: Competitive inhibition of human MMP7 using fluorogenic substrate at 125 uM by Dixon plot analysis.
Data set [10] deals with T2, Interstitial collagenase (Homo sapiens). Kind of data set: Competitive inhibition of human MMP1 using fluorogenic substrate at 60 uM by Dixon plot analysis.
Data set [11] deals with T1, Stromelysin-1. Put plainly: Competitive inhibition of human MMP3 using fluorogenic substrate at 60 uM by Dixon plot analysis.
Target sequence in this assay (P08254 100-477 limits assumed): as the sequence (P08254 100-477 limits assumed) above
Data set [12] addresses T3, Matrilysin (Homo sapiens). Put plainly: Competitive inhibition of human MMP7 using fluorogenic substrate at 10 uM by Dixon plot analysis.
In data set [13] the test system is Liver microsomes. Put plainly: Drug metabolism in rat liver microsomes assessed as 4-(4-(hydroxymethyl)phenoxy)benzenesulfinic acid formation at 50 uM after 15 mins by tandem MS analysis. The format is ADME, Microsome. The following applies: 0.25 h. For orientation: Liver microsomes are vesicles of endoplasmic reticulum, rich in cytochrome P450 enzymes.
Data set [14] has as its system Liver microsomes. Kind of data set: Drug metabolism in rat liver microsomes assessed as 4-(4-(thiiran-2-ylmethylsulfonyl)phenoxy)benzaldehyde formation at 50 uM after 15 mins by tandem MS analysis. The following applies: 0.25 h. The format is ADME, Microsome.
The subject of data set [15] is Liver microsomes. Put plainly: Drug metabolism in rat liver microsomes assessed as 4-(4-(thiiran-2-ylmethylsulfonyl)phenoxy)benzoic acid formation at 50 uM after 15 mins by tandem MS analysis. The format is ADME, Microsome. The settings on record: 0.25 h.
Another data set deals with T4, Interstitial collagenase (Homo sapiens, UniProt P03956).
T4 sequence (P03956 whole entry): T2 sequence (whole entry)

Another data set has as its target T5, Matrilysin (Homo sapiens, UniProt P09237).
T5 sequence (P09237 whole entry): T3 sequence (whole entry)

Data set [16] deals with T2, Interstitial collagenase (Homo sapiens). Put plainly: Competitive inhibition of human MMP1 using fluorogenic substrate at 50 uM by Dixon plot analysis.
Data set [17] addresses T3, Matrilysin (Homo sapiens). Put plainly: Competitive inhibition of human MMP7 using fluorogenic substrate at 75 uM by Dixon plot analysis.

Matrix metalloproteinase-9, sequence (P14780 whole entry): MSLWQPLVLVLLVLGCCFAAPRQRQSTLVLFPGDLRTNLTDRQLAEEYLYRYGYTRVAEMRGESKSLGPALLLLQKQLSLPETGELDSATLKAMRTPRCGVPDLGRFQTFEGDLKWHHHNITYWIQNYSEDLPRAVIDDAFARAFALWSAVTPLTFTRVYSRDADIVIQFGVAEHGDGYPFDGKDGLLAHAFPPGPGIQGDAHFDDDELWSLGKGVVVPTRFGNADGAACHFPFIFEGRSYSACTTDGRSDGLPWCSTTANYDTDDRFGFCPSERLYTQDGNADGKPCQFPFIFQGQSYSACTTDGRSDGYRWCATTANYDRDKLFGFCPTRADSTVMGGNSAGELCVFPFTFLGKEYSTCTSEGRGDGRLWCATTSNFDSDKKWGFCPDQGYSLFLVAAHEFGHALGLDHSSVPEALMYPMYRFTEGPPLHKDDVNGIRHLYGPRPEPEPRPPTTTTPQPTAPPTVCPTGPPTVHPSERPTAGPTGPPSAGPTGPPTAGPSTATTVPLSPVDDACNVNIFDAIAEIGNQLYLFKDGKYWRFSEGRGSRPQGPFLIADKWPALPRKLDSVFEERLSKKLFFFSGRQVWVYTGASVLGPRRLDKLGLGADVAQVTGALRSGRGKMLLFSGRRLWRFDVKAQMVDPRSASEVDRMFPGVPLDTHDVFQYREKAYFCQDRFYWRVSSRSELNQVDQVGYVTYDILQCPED
72 kDa type IV collagenase, sequence (P08253 whole entry): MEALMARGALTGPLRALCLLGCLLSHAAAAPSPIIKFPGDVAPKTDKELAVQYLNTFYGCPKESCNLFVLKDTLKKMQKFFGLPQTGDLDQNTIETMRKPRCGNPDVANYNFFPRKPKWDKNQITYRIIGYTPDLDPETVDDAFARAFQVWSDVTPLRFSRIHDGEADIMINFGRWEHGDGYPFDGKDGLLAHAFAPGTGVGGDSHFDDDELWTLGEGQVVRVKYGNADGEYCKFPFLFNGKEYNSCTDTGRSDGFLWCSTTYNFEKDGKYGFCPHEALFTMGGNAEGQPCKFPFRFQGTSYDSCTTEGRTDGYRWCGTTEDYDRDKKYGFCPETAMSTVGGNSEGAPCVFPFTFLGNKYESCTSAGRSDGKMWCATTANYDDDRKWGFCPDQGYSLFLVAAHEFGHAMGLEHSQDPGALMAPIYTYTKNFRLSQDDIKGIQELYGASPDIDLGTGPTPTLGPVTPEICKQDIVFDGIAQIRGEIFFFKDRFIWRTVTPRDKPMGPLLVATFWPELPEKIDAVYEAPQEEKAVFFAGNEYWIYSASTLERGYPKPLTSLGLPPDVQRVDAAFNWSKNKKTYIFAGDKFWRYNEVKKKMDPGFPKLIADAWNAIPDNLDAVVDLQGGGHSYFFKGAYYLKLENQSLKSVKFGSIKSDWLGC

A word on the Ki: it is the dissociation constant of the complex between target and ligand, obtained from inhibition or displacement. Low readings indicate higher affinity, high ones lower affinity. As for `O=S(=O)(CC1CS1)c1ccc(Oc2ccccc2)cc1` (stereo not given), the t1/2 with Liver stood at 4.4 min. Also, the Ki in data set [1] worked out at 37 nM.

In turn, `CS(=O)(=O)Oc1ccc(Oc2ccc(S(=O)(=O)CC3CS3)cc2)cc1` (racemic) displayed a t1/2 in the data set on Liver of 27 min. This compound showed a Ki on Stromelysin-1 [2] of 575 nM.

Broadly, the inhibition is how much of the control response was suppressed. For the compound `O=S(=O)(CC1CS1)c1ccc(Oc2ccc(F)cc2)cc1` (racemic), in data set [3], the inhibition result was “inactive”. Further, the inhibition at Stromelysin-1 [4] amounted to 50%; in data set [5], 9%. Besides, the t1/2 in the data set on Liver is on record as 3.7 min. For the same compound, the Ki in data set [6] worked out at 61 nM; in data set [7], 44 nM; in data set [1] it was 580 nM.

`O=S(=O)(CC1CS1)c1ccc(Oc2cccc(F)c2)cc1` (racemic) displayed an inhibition in data set [8] of 7%. For the same compound, the inhibition entry in data set [9] is “inactive”. For the same compound, the t1/2 in the data set on Liver is listed as 2.9 min. Moreover, the Ki in data set [6] turned out to be 450 nM; on Stromelysin-1 [2] it was 27000 nM; in data set [7] it was 3000 nM; in data set [1], 190 nM.

Take `O=S(=O)(CC1CS1)c1ccc(Oc2ccc(I)cc2)cc1` (racemic): the inhibition result in data set [10] and in data set [12] was “inactive” each time. Further, the inhibition at Stromelysin-1 [11] worked out at 18%. In the data set on Liver, the t1/2 is 7.2 min. Moreover, the Ki in data set [6] stood at 600 nM; in data set [7] it was 290 nM.

Consider `O=S(=O)(CC1CS1)c1ccc(Oc2ccc(CO)cc2)cc1` (racemic), for which, in the data set with Liver, the t1/2 is 13 min. The Drug metabolism entry in the data set with Liver microsomes [13], with Liver microsomes [14] and in the data set on Liver microsomes [15] was “Active” throughout. The inhibitory constant (Ki) on Interstitial collagenase was found to be 205000 nM; in [6] it was 78 nM; on Stromelysin-1 [2], 4100 nM; at Matrilysin, 48500 nM; in data set [7], 390 nM; in data set [1], 215 nM.

Consider `O=S(=O)(CC1CS1)c1ccc(Oc2ccc(O)cc2)cc1` (racemic), for which the t1/2 in the data set on Liver came to 23 min. The inhibition constant (Ki) at Interstitial collagenase stood at 128000 nM; in data set [6], 6 nM; on Stromelysin-1 [2], 2200 nM; at Matrilysin, 31000 nM; in data set [1], 90 nM.

Regarding `CC(C)Oc1ccc(Oc2ccc(S(=O)(=O)CC3CS3)cc2)cc1` (racemic), the inhibition in data set [16] was 11%; in data set [5] it was 30%. Also, the Ki amounted to 300 nM in data set [6], 17000 nM on Stromelysin-1 [2], 470 nM in [7] and 280 nM in data set [1].

Regarding `COCOc1ccc(Oc2ccc(S(=O)(=O)CC3CS3)cc2)cc1` (racemic), the inhibition stood at 6% in data set [8] and 19% in data set [17]. In the data set with Liver, this compound showed a t1/2 of 7.7 min. Also, the inhibition constant Ki was determined as 180 nM in data set [6], 12000 nM on Stromelysin-1 [2], 160 nM in data set [7] and 140 nM in data set [1].

With `O=S(=O)(CC1CS1)c1ccc(Oc2ccc(OC(F)(F)F)cc2)cc1` (racemic), the inhibition in data set [3] stood at 3%; on Stromelysin-1 [4], 14%. Further, the inhibition entry in data set [5] is “inactive”. In the data set on Liver, the t1/2 is reported as 7.3 min. For the same compound, the figures for the Ki in data set [6], in [7] and in data set [1] were 110 nM, 930 nM and 5080 nM, respectively.
